Measured values reported in US4376119A, “Benzothiazine derivative” (priority 1981, dated 1983).
Where two headings read alike, the source gives them in different places.

Key:
[1] = system: carrageenin-induced edema; assay: Carrageenin-induced edema suppression in rats (anti-inflammatory activity); format: in vivo, rat (male, Wistar strain); conditions: for ED50: read-out: Anti-inflammatory activity, ED50
Protocol: Anti-inflammatory activity was tested as follows: Male rats of the Wistar strain were used in groups of 7. A test compound was suspended in a 0.2% carboxymethyl cellulose solution and orally administered in a dose of 0.5 ml/100 g of body weight. […] Three hours after injection of carrageenin, each rat was sacrificed by ether. The feet of both hind legs were amputated at the ankle joint and weighed to detect the difference in weight between both feet. Then, the ability of the test compound to suppress the carrageenin-induced edema was evaluated by comparing the foot weight difference of the test group with that of a control group (consisting of rats to which the solvent alone was administered). Specifically, the rate of suppression of the edema was calculated according to the following equation: [formula]

in vivo [2] = conditions: rat, in vivo, po
Protocol: (§1) The incidence of gastric disorders in rats was tested as follows: Eight-weeks-old male rats of the Wistar strain were used in groups of 5 to 7. After they were fasted for 18 hours or more, a test compound was administered orally. Six hours later, each rat was sacrificed by decapitation. The stomach was removed, filled with 10 ml of physiological saline, and then fixed in 5% formalin. After about 10 minutes, the stomach was incised through the greater curvature and the presence or absence of gastric disorders (in particular, erosion) was examined by visual observation. According to Litchfield-Wilcoxon's method, the dose causing erosion to occur in 50% of the test animals, UD50, was calculated on an all-or-none basis.

[3] = system: carrageenin-induced edema; assay: Duration of anti-inflammatory activity (carrageenin edema, varied premedication time); format: in vivo, rat (male, Wistar strain); conditions: for Rate of suppression of edema: dose = ED50
Source text: The premedication time was defined as the time interval between the administration of a test compound and the injection of carrageenin.

mice = assay: in vivo; conditions: for Number of deaths/total number of test animals: p.o.
Protocol: (§2) A test compound was suspended in a 0.2% carboxymethyl cellulose solution and orally administered in a dose of 0.1 ml/10 g of body weight. […] The LD50 value was calculated on the basis of the death rates on the final day.

in vivo [4] = conditions: mouse, in vivo, po
Protocol: as §2

[5] = Table 1; literature value: Pharmacometrics, 6(6), 1285 (1972) for indomethacin; Folia Pharmacologica Japonica, 69, 319 (1973) for diclofenac; cited from earlier work
[6] = system: stomach (gastric disorders, erosion); assay: Incidence of gastric disorders (erosion) in rats; conditions: Table 1; ratio of UD50 (gastric) to ED50 (edema)
Protocol: as §1

[7] = cited from earlier work
[8] = Rattus norvegicus, po, 3 h, p.o., read-out: Rate of suppression of edema
[9] = 3 h, Table 1, rat, oral, carrageenin edema
[10] = Rattus norvegicus, po, 3 h, read-out: Rate of suppression of edema
[11] = Rattus norvegicus, po, 3 h, 1.25 mg/kg, p.o., read-out: Rate of suppression of edema
[12] = Rattus norvegicus, po, 3 h, 2.5 mg/kg, p.o., read-out: Rate of suppression of edema
[13] = Rattus norvegicus, po, 3 h, 5.0 mg/kg, p.o., read-out: Rate of suppression of edema

Structure (SMILES) | TD50 at 6 h (in vivo [2]) [mg/kg] | ED50 [1, 9] [mg/kg] | Rate of suppression of edema ([3]; premedicated 1 hr.) [%] | Rate of suppression of edema ([3]; premedicated 3 hr.) [%] | Rate of suppression of edema ([3]; premedicated 6 hr.) [%] | Rate of suppression of edema ([3]; premedicated 12 hr.) [%] | Rate of suppression of edema ([3]; premedicated 24 hr.) [%] | Rate of suppression of edema ([3]; premedicated 48 hr.) [%] | LD50 at 168 h (in vivo [4]) [mg/kg] | Anti-inflammatory activity (in words) ([7]; prior art) | further results
CN1C(C(=O)Nc2ccc(Cl)cn2)C(=O)c2ccccc2S1(=O)=O (stereo not shown) [5-Chloro-2-pyridyl compound, N-(5-chloro-2-pyridyl)-3,4-dihydro-2-methyl-4-oxo-2H-1,2-benzothiazine-3-carboxamide 1,1-dioxide] |  |  |  |  |  |  |  |  |  |  | inhibition in vivo at 6.5 mg/kg [1, 8]: 18.9%
Cc1cccc(NC(=O)C2C(=O)c3ccccc3S(=O)(=O)N2C)n1 (stereo not shown) [6-Methyl-2-pyridyl compound, N-(6-methyl-2-pyridyl)-3,4-dihydro-2-methyl-4-oxo-2H-1,2-benzothiazine-3-carboxamide 1,1-dioxide] | 5.1 | 4.5 |  |  |  |  |  |  |  |  | inhibition in vivo at 1.75 mg/kg ([1]; Rattus norvegicus, po, 3 h, 1.75 mg/kg, p.o., read-out: Rate of suppression of edema): 27.4%; inhibition in vivo at 6.5 mg/kg [1, 8]: 58.9%
CN1C(C(=O)Nc2cccc(F)n2)C(=O)c2ccccc2S1(=O)=O (stereo not shown) [Compound of formula (1), N-(6-fluoro-2-pyridyl)-3,4-dihydro-2-methyl-4-oxo-2H-1,2-benzothiazine-3-carboxamide 1,1-dioxide] | 297 | 7.5 | 56.6 | 54.8 | 43.2 | 39.1 | 20.7 | 3.4 | > 5000 |  | Duration of anti-inflammatory activity (in words) ([3]; from Table 3): excellent in the duration of anti-inflammatory activity; Number of deaths/total number of test animals (mice; 3,000 mg/kg): 0/5; Number of deaths/total number of test animals (mice; 4,000 mg/kg): 0/5; Number of deaths/total number of test animals (mice; 5,000 mg/kg): 0/5; Acute toxicity, LD50 (mice; Table 1, mouse, oral, 7 days): > 5,000 mg/kg; Degree of safety (in words) (mice; mouse, in vivo): very high degree of safety; inhibition in vivo at 2 mg/kg ([1]; Rattus norvegicus, po, 3 h, 2.0 mg/kg, p.o., read-out: Rate of suppression of edema): 20%; inhibition in vivo at 4 mg/kg ([1]; Rattus norvegicus, po, 3 h, 4.0 mg/kg, p.o., read-out: Rate of suppression of edema): 32%; inhibition in vivo at 8 mg/kg ([1]; Rattus norvegicus, po, 3 h, 8.0 mg/kg, p.o., read-out: Rate of suppression of edema): 54.6%; inhibition in vivo at 16 mg/kg ([1]; Rattus norvegicus, po, 3 h, 16.0 mg/kg, p.o., read-out: Rate of suppression of edema): 66.6%; Anti-inflammatory activity (in words) ([1]; summary of results): potent and long-lasting anti-inflammatory activity
O=C(O)Cc1ccccc1Nc1c(Cl)cccc1Cl [Diclofenac, diclofenac] | 9.2 |  | 45.9 | 24.7 | 17.6 |  | -1.2 |  |  |  | ED50 ([1]; Rattus norvegicus, po, 3 h): 5 mg/kg; inhibition in vivo at 2.5 mg/kg [1, 10]: 29.7%; inhibition in vivo at 5 mg/kg [1, 10]: 48.5%; inhibition in vivo at 10 mg/kg [1, 10]: 69.3%
COc1ccc2c(c1)c(CC(=O)O)c(C)n2C(=O)c1ccc(Cl)cc1 [Indomethacin, indomethacin] | 5.4 |  | 49.4 | 57.6 | 29.4 | 18.8 | -3.5 |  |  |  | Acute toxicity, LD50 [5]: 17 mg/kg; selectivity ratio (in vivo [4]): 3.7; Therapeutic index, UD50/ED50 [6]: 1.2; ED50 ([1]; Rattus norvegicus, po, 3 h): 4.6 mg/kg; inhibition in vivo at 1.25 mg/kg [1, 10]: 19.3%; inhibition in vivo at 2.5 mg/kg [1, 10]: 22.8%; inhibition in vivo at 5 mg/kg [1, 10]: 57.4%; inhibition in vivo at 10 mg/kg [1, 10]: 73.3%
Cc1cc(NC(=O)C2C(=O)c3ccccc3S(=O)(=O)N2C)no1 (stereo not shown) [Isoxicam, 3,4-dihydro-2-methyl-N-(5-methyl-3-isoxazolyl)-4-oxo-2H-1,2-benzothiazine-3-carboxamide 1,1-dioxide] | 250 | 15.5 | 54.2 | 54.2 | 45.8 | 36.3 | 19.5 | 1.1 | 5000 | lower than that of Piroxicam and Sudoxicam | Degree of toxicity and incidence of gastric disorders (in words) ([7]; in vivo): relatively low; inhibition in vivo at 3.75 mg/kg ([1]; Rattus norvegicus, po, 3 h, 3.75 mg/kg, p.o., read-out: Rate of suppression of edema): 7.5%; inhibition in vivo at 7.5 mg/kg ([1]; Rattus norvegicus, po, 3 h, 7.5 mg/kg, p.o., read-out: Rate of suppression of edema): 32.3%; inhibition in vivo at 15 mg/kg ([1]; Rattus norvegicus, po, 3 h, 15.0 mg/kg, p.o., read-out: Rate of suppression of edema): 46.8%; inhibition in vivo at 30 mg/kg ([1]; Rattus norvegicus, po, 3 h, 30.0 mg/kg, p.o., read-out: Rate of suppression of edema): 69.4%
CN1C(C(=O)Nc2ccccn2)C(=O)c2ccccc2S1(=O)=O (stereo not shown) [Piroxicam, 3,4-dihydro-2-methyl-4-oxo-N-(2-pyridyl)-2H-1,2-benzothiazine-3-carboxamide 1,1-dioxide] | 8.2 | 1.75 | 57.6 | 55.3 | 40.0 | 38.8 | 15.3 | 1.7 | 490 | potent and long-lasting anti-inflammatory activity | Degree of toxicity and incidence of gastric disorders (in words) ([7]; in vivo): not appreciably different from those of indomethacin and diclofenac; inhibition in vivo at 0.625 mg/kg ([1]; Rattus norvegicus, po, 3 h, 0.625 mg/kg, p.o., read-out: Rate of suppression of edema): 26.9%; inhibition in vivo at 1.25 mg/kg [1, 11]: 42.5%; inhibition in vivo at 2.5 mg/kg [1, 12]: 57%; inhibition in vivo at 5 mg/kg [1, 13]: 76.4%
CN1C(C(=O)Nc2nccs2)C(=O)c2ccccc2S1(=O)=O (stereo not shown) [Sudoxicam, 3,4-dihydro-2-methyl-4-oxo-N-(2-thiazolyl)-2H-1,2-benzothiazine-3-carboxamide 1,1-dioxide] | 11.8 | 5.1 | 49.8 | 52.1 | 39.5 | 31.6 | 10.4 | -2.4 | 500 | potent and long-lasting anti-inflammatory activity | Number of deaths/total number of test animals (mice; 200 mg/kg): 0/5; Number of deaths/total number of test animals (mice; 400 mg/kg): 2/5; Number of deaths/total number of test animals (mice; 800 mg/kg): 4/5; Number of deaths/total number of test animals (mice; 1,000 mg/kg): 5/5; Therapeutic index and safety margin (in words) (mice; from Table 1): superior in therapeutic index and safety margin to indomethacin and diclofenac; selectivity ratio (in vivo [4]): 98; Degree of toxicity and incidence of gastric disorders (in words) ([7]; prior art): not appreciably different from those of indomethacin and diclofenac; Therapeutic index, UD50/ED50 [6]: 2.3; inhibition in vivo at 1.25 mg/kg [1, 11]: 14.9%; inhibition in vivo at 2.5 mg/kg [1, 12]: 30.7%; inhibition in vivo at 5 mg/kg [1, 13]: 45.5%; inhibition in vivo at 10 mg/kg ([1]; Rattus norvegicus, po, 3 h, 10.0 mg/kg, p.o., read-out: Rate of suppression of edema): 69.3%
